Data as given in the NIST ThermoML archive (doi:10.1016/j.jct.2004.07.008).
± gives the expanded uncertainty stated by the source.

Legend:
[1] = 100 kPa, Liquid
[2] = xn = mol fraction of the nth substance listed; settings: 278.15 K; 100 kPa; Liquid; x2 = 0

SMILES	mass density ([1]; 278.15 K) [kg/m3]	mass density ([1]; 288.15 K) [kg/m3]	mass density ([1]; 293.15 K) [kg/m3]	mass density ([1]; 298.15 K) [kg/m3]	mass density ([1]; 308.15 K) [kg/m3]	mass density [2] [kg/m3]
CCNCC [diethylamine]	719.94 ± 1.2	709.52 ± 1.2	704.59 ± 1.2	698.97 ± 1.2	688.29 ± 1.3	
O [water] + CCNCC						999.964 ± 0.25
